Inconclusive results and toxic doses are left out. How the source made its calls: active means survival T/C of 150% or more; inactive means T/C below 125% in these data.
System: P388 leukemia ip, CD2F1 mice, survival T/C
Assay: NCI In Vivo Anticancer Drug Screen. Data for tumor model P388 Leukemia (intraperitoneal) in CD2F1 (CDF1) mice
Settings: endpoint: median survival time, higher = longer survival
Outline: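 Mice carrying the transplanted tumor received test compound or vehicle. Survival was recorded in each group, and the value is the treated-group measurement divided by that of the vehicle-treated control group.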

[1] = dose: 60.0 mg/kg/injection, schedule: Q01DX005 (ip), vehicle: saline
[2] = dose: 120.0 mg/kg/injection, schedule: Q01DX005 (ip), vehicle: saline
[3] = dose: 240.0 mg/kg/injection, schedule: Q01DX005 (ip), vehicle: saline
[4] = dose: 50.0 mg/kg/injection, schedule: Q01DX005 (ip), vehicle: Klucel (hydroxypropylcellulose) (HPC)
[5] = dose: 100.0 mg/kg/injection, schedule: Q01DX005 (ip), vehicle: Klucel (hydroxypropylcellulose) (HPC)
[6] = dose: 200.0 mg/kg/injection, schedule: Q01DX005 (ip), vehicle: Klucel (hydroxypropylcellulose) (HPC)
[7] = dose: 50.0 mg/kg/injection, schedule: Q01DX009 (ip), vehicle: saline with Tween-80
[8] = dose: 100.0 mg/kg/injection, schedule: Q01DX009 (ip), vehicle: saline with Tween-80
[9] = dose: 200.0 mg/kg/injection, schedule: Q01DX009 (ip), vehicle: saline with Tween-80
[10] = dose: 400.0 mg/kg/injection, schedule: Q01DX009 (ip), vehicle: saline with Tween-80
[11] = dose: 60.0 mg/kg/injection, schedule: Q01DX005 (ip), vehicle: saline with Tween-80
[12] = dose: 120.0 mg/kg/injection, schedule: Q01DX005 (ip), vehicle: saline with Tween-80
[13] = dose: 240.0 mg/kg/injection, schedule: Q01DX005 (ip), vehicle: saline with Tween-80
[14] = dose: 50.0 mg/kg/injection, schedule: Q01DX005 (ip), vehicle: saline with Tween-80
[15] = dose: 100.0 mg/kg/injection, schedule: Q01DX005 (ip), vehicle: saline with Tween-80
[16] = dose: 200.0 mg/kg/injection, schedule: Q01DX005 (ip), vehicle: saline with Tween-80

Measured: T/C

O=C(O)C(Cc1c[nH]c2ccccc12)C(=O)NO (stereo not drawn)
inactive: [1] 97 % of control | [2] 97 % of control | [3] 94 % of control

COc1ccc(NC(=O)C2C(=O)C(=O)N(c3ccc(OC)cc3OC)C2=O)c(OC)c1 (stereo not drawn)
inactive: dose: 50.0 mg/kg/injection, schedule: Q01DX009 (ip), vehicle: Klucel (hydroxypropylcellulose) (HPC) 98 % of control | dose: 100.0 mg/kg/injection, schedule: Q01DX009 (ip), vehicle: Klucel (hydroxypropylcellulose) (HPC) 100 % of control | dose: 200.0 mg/kg/injection, schedule: Q01DX009 (ip), vehicle: Klucel (hydroxypropylcellulose) (HPC) 98 % of control

Nc1ncnc2c1ncn2CC(O)CCl (stereo not drawn)
inactive: [4] 100 % of control | [5] 99 % of control | [6] 100 % of control

Nc1cc2nc3ccccc3sc-2cc1=O
inactive: [7] 112 % of control | [8] 111 % of control | [9] 113 % of control | [10] 89 % of control

COc1cc(C(=O)CC2=NC3NN(c4ccccc4)C(=O)C3=C2CC(=O)c2ccc(O)c(OC)c2)ccc1O (stereo not drawn)
inactive: [1] 100 % of control | [2] 102 % of control | [3] 98 % of control

Clc1cc(CBr)c(CBr)cc1Cl
inactive: dose: 3.13 mg/kg/injection, schedule: Q01DX009 (ip), vehicle: saline with Tween-80 95 % of control | dose: 6.25 mg/kg/injection, schedule: Q01DX009 (ip), vehicle: saline with Tween-80 100 % of control | dose: 12.5 mg/kg/injection, schedule: Q04DX003 (ip), vehicle: saline with Tween-80 113 % of control | dose: 25.0 mg/kg/injection, schedule: Q04DX003 (ip), vehicle: saline with Tween-80 109 % of control

O=C(O)CNC1CCCCC1
inactive: [1] 95 % of control | [2] 92 % of control | [3] 87 % of control

C=C1C(=O)OC2CC(C)C3C(OC(C)=O)CC(OC(C)=O)C3(C)CC12 (stereo not drawn)
inactive: dose: 12.5 mg/kg/injection, schedule: Q04DX002 (ip), vehicle: saline with Tween-80 99 % of control | dose: 25.0 mg/kg/injection, schedule: Q04DX002 (ip), vehicle: saline with Tween-80 106 % of control | dose: 50.0 mg/kg/injection, schedule: Q04DX002 (ip), vehicle: saline with Tween-80 103 % of control

Cc1cc(OCCCCOc2ccc(C#N)cc2)ccc1[N+](=O)[O-]
inactive: [11] 96 % of control | [12] 90 % of control | [13] 88 % of control

COc1cc2c(c(OC(C)=O)c1OC)-c1ccc(OC)c(=O)cc1[C@@H](NC(C)=O)CC2
inactive: dose: 1.25 mg/kg/injection, schedule: Q01DX009 (ip), vehicle: Klucel (hydroxypropylcellulose) (HPC) 94 % of control | dose: 2.5 mg/kg/injection, schedule: Q01DX009 (ip), vehicle: Klucel (hydroxypropylcellulose) (HPC) 92 % of control | dose: 5.0 mg/kg/injection, schedule: Q01DX009 (ip), vehicle: Klucel (hydroxypropylcellulose) (HPC) 100 % of control | dose: 10.0 mg/kg/injection, schedule: Q01DX009 (ip), vehicle: Klucel (hydroxypropylcellulose) (HPC) 100 % of control | dose: 20.0 mg/kg/injection, schedule: Q01DX009 (ip), vehicle: Klucel (hydroxypropylcellulose) (HPC) 109 % of control

O=C(O)c1ccc2c(c1)S(=O)(=O)NC2=O
inactive: [11] 95 % of control | [12] 99 % of control | [13] 101 % of control

CC(=O)c1ccc(N=C2c3ccccc3CN2c2ccc(C(C)=O)cc2)cc1
inactive: [14] 88 % of control | [15] 89 % of control

COC(=O)c1cccc2c(=O)c(CCl)c(-c3ccccc3)sc12
inactive: dose: 100.0 mg/kg/injection, schedule: Q01DX001 (ip), vehicle: saline with Tween-80 93 % of control | dose: 200.0 mg/kg/injection, schedule: Q01DX001 (ip), vehicle: saline with Tween-80 91 % of control | dose: 400.0 mg/kg/injection, schedule: Q01DX001 (ip), vehicle: saline with Tween-80 91 % of control

O=C(NC1c2ccccc2Oc2ccccc21)c1ccccc1
inactive: dose: 12.5 mg/kg/injection, schedule: Q04DX003 (ip), vehicle: distilled water + Tween-80 93 % of control | dose: 25.0 mg/kg/injection, schedule: Q04DX003 (ip), vehicle: distilled water + Tween-80 92 % of control | dose: 50.0 mg/kg/injection, schedule: Q04DX003 (ip), vehicle: distilled water + Tween-80 93 % of control | dose: 100.0 mg/kg/injection, schedule: Q04DX003 (ip), vehicle: distilled water + Tween-80 93 % of control

Nc1cc(C(F)(F)F)ccc1S
inactive: dose: 3.0 mg/kg/injection, schedule: Q01DX009 (ip), vehicle: DMSO 94 % of control | dose: 6.0 mg/kg/injection, schedule: Q01DX009 (ip), vehicle: DMSO 103 % of control | dose: 12.5 mg/kg/injection, schedule: Q01DX009 (ip), vehicle: DMSO 90 % of control

CC12CC(CS(=O)C1)c1ccccc1N2 (stereo not drawn)
inactive: dose: 100.0 mg/kg/injection, schedule: Q04DX002 (ip), vehicle: saline with Tween-80 97 % of control | dose: 200.0 mg/kg/injection, schedule: Q04DX002 (ip), vehicle: saline with Tween-80 101 % of control | dose: 400.0 mg/kg/injection, schedule: Q04DX002 (ip), vehicle: saline with Tween-80 100 % of control

COc1ccc2c(c1)CCC1=C2C=C[P+]1(C)C
inactive: [7] 94 % of control

O=C(O)c1nn(-c2ccccc2-c2n[nH]c(=O)[nH]c2=O)c(=O)[nH]c1=O
inactive: [14] 101 % of control | [15] 90 % of control | [16] 95 % of control

CNC/C(Cl)=N/S(=O)(=O)c1ccc(C)cc1
inactive: [11] 99 % of control | [12] 99 % of control | [13] 105 % of control

Cc1ccc(S(=O)(=O)NCCSSCCNS(=O)(=O)c2ccc(C)cc2)cc1
inactive: [4] 103 % of control | [5] 106 % of control | [6] 103 % of control

CC(=O)c1cc[n+](Cc2cc3ccccc3nc2Br)cc1
inactive: dose: 12.5 mg/kg/injection, schedule: Q04DX002 (ip), vehicle: saline 101 % of control | dose: 25.0 mg/kg/injection, schedule: Q04DX002 (ip), vehicle: saline 102 % of control | dose: 50.0 mg/kg/injection, schedule: Q04DX002 (ip), vehicle: saline 101 % of control

CC(NC(=O)OC(C)(C)C)C(=O)NC(C)C(=O)NC(C)C(=O)Nc1ccc([N+](=O)[O-])cc1 (stereo not drawn)
inactive: [14] 94 % of control | [15] 92 % of control | [16] 87 % of control

Cc1cccc(-c2cc(Cl)c3cc(S(=O)(=O)F)ccc3n2)c1
inactive: [8] 100 % of control | dose: 100.0 mg/kg/injection, schedule: Q04DX003 (ip), vehicle: saline with Tween-80 100 % of control | [9] 108 % of control | dose: 200.0 mg/kg/injection, schedule: Q04DX003 (ip), vehicle: saline with Tween-80 100 % of control | [10] 100 % of control | dose: 400.0 mg/kg/injection, schedule: Q04DX003 (ip), vehicle: saline with Tween-80 109 % of control

OCc1cnccc1Cl
inactive: [1] 95 % of control | [2] 100 % of control

COc1cc(Cc2nc3n(O)cc(C)nc-3c(=N)n2)cc(OC)c1OC
inactive: dose: 12.5 mg/kg/injection, schedule: Q01DX009 (ip), vehicle: saline 99 % of control | dose: 25.0 mg/kg/injection, schedule: Q01DX009 (ip), vehicle: saline 105 % of control | dose: 50.0 mg/kg/injection, schedule: Q01DX009 (ip), vehicle: saline 108 % of control

O=C(Nc1nccs1)Nc1ccc(Br)cc1C(F)(F)F
inactive: [7] 110 % of control | [8] 113 % of control | [9] 113 % of control

c1cc[c]([Ge]([c]2ccccc2)[c]2ccccc2)cc1
inactive: [11] 91 % of control | [12] 100 % of control | [13] 97 % of control

Cc1ccc(/C=C2/C(=O)N(c3ccccc3)N=C2c2ccccc2)cc1
inactive: dose: 1.87 mg/kg/injection, schedule: Q01DX005 (ip), vehicle: saline with Tween-80 110 % of control | dose: 3.75 mg/kg/injection, schedule: Q01DX005 (ip), vehicle: saline with Tween-80 113 % of control | dose: 3.75 mg/kg/injection, schedule: Q01DX005 (ip), vehicle: saline 95 % of control | dose: 7.5 mg/kg/injection, schedule: Q01DX005 (ip), vehicle: saline with Tween-80 113 % of control | dose: 15.0 mg/kg/injection, schedule: Q01DX005 (ip), vehicle: saline with Tween-80 110 % of control | dose: 15.0 mg/kg/injection, schedule: Q01DX005 (ip), vehicle: saline 100 % of control | dose: 30.0 mg/kg/injection, schedule: Q01DX005 (ip), vehicle: saline with Tween-80 109 % of control | [11] 108 % of control
